Measurements from patent EP4603105A1, “PHARMACEUTICAL COMPOSITION CONTAINING CYCLIC COMPOUND HAVING SELECTIVE KRAS INHIBITORY EFFECT AGAINST HRAS AND NRAS” (CHUGAI SEIYAKU KABUSHIKI KAISHA, priority 2022, dated 2024).
Like-named read-outs stand apart in the source and are kept apart here.

Tests used:
[1] = molecular target: GDP-bound KRAS wild-type protein (Homo sapiens, UniProt P01116); assay: Binding to KRAS by surface plasmon resonance (SPR), dissociation constant KD
Procedure, shortened: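 Captured GDP-RAS (~100–300 RU) was exposed to increasing compound concentrations, 75 s per step, in running buffer with 10 µM GDP, 10 mM MgCl2 and 4% DMSO at pH 7.4.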

[2] = molecular target: GDP-bound NRAS wild-type protein (Homo sapiens, UniProt P01111); assay: Binding to NRAS by surface plasmon resonance (SPR), KD and KD ratio to KRAS
Sequence of GDP-bound NRAS wild-type protein (P01111 whole entry): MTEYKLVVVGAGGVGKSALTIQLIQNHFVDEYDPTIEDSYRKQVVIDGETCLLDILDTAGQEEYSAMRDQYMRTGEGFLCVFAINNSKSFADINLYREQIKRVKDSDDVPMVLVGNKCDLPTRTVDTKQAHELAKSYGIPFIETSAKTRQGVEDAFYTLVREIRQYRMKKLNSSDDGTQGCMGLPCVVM
Procedure, shortened: (§1)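 Biotinylated GDP-bound RAS was captured at about 100–300 RU. Running buffer: HBS pH 7.4, 10 mM MgCl2, 10 µM GDP, 1 mM DTT, 0.01% Tween 20, 4% DMSO.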

HRAS wild-type protein = HRAS wild-type protein (Homo sapiens, UniProt P01112); assay: Binding to HRAS by surface plasmon resonance (SPR), KD and KD ratio to KRAS
Sequence of HRAS wild-type protein (P01112 whole entry): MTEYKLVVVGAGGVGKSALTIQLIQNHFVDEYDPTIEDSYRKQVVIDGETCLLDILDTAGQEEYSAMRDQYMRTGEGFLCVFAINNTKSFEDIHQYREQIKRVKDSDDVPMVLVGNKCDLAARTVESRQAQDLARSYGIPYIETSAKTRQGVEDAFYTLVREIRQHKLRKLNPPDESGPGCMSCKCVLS
Procedure, shortened: as §1

[3] = tested on: human lung cancer strain NCI-H441; assay: NCI-H441 cell proliferation inhibitory activity (CellTiter-Glo, 4 days); type: cell-based; settings: read-out: NCl-H441 IC50
Procedure, shortened: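 Step one: dispense the test compound in serial DMSO dilutions. Step three: add the reagent and measure […].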

[4] = ratio of KD for GDP-bound NRAS wild-type protein to KD for KRAS
[5] = ratio of KD for HRAS wild-type protein to KD for KRAS
[6] = Single Cycle Kinetics, 1:1 binding model
[7] = ratio of KD with respect to GDP-bound NRAS wild-type protein to KD with respect to KRAS
[8] = ratio of KD with respect to HRAS wild-type protein to KD with respect to KRAS
[9] = 50% proliferation inhibitory concentration, four days

Sequence of GDP-bound KRAS wild-type protein (P01116 1-188 isoform P01116-2): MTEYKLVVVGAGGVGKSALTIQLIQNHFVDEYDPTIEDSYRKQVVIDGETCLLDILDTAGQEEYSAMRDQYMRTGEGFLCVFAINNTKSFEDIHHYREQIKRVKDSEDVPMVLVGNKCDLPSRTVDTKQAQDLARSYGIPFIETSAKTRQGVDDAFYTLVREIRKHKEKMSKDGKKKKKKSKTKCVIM

Row | Compound | Kd ([1]; Single Cycle Kinetics) [nM] | NRAS /KRAS [2, 4] | HRAS /KRAS (HRAS wild-type protein; [5]) | IC50 ([3]; NCI-H441 cells, 4 days) [nM] | Kd ([1]; 1:1 binding model) [nM] | Kd [1, 6] [nM] | NRAS /KRAS [2, 7] | HRAS /KRAS (HRAS wild-type protein; [8]) | IC50 [3, 9] [nM]
1 | CCC[C@H]1C(=O)N[C@@H]([C@@H](C)CC)C(=O)N2CCCC[C@H]2C(=O)N(C)[C@H]2C/C=C\CCN(C2=O)[C@@H](Cc2ccc(C)cc2)C(=O)N(C)CC(=O)N[C@@H](CCc2ccc(C(F)(F)F)c(Cl)c2)C(=O)N2C[C@H](OCC)C[C@H]2C(=O)N(C)C2(CCC2)C(=O)N(C)[C@@H](C2CCCC2)C(=O)N(C)[C@H](C(=O)N(C)C)CC(=O)N1C [PP3275] | 1.7 | B (a compound having 3 or more and less than 10 is denoted as B) | B (a compound having 3 or more and less than 10 is denoted as B) | 84.8 |  |  |  |  | 
2 | CCO[C@@H]1C[C@H]2C(=O)NC3(CCCC3)C(=O)N(C)[C@@H](C3CCCC3)C(=O)N(C)[C@H](C(=O)N(C)C)CC(=O)N(C)[C@@H](CC(C)C)C(=O)N[C@@H]([C@@H](C)CC)C(=O)N(C)CC(=O)N(C)[C@H]3C/C(F)=C\CCN(C3=O)[C@@H](Cc3ccc(C)cc3)C(=O)N(C)CC(=O)N[C@@H](CCc3ccc(C(F)(F)F)c(OC)c3)C(=O)N2C1 [PP3512] | 0.25 | B (a compound having 3 or more and less than 10 is denoted as B) | B (a compound having 3 or more and less than 10 is denoted as B) | 8.8 |  |  |  |  | 
3 | CCOC[C@H]1C(=O)N[C@@H]([C@@H](C)CC)C(=O)N(C)CC(=O)N(C)[C@H]2C/C=C\CCN(C2=O)[C@@H](Cc2ccc(C(F)(F)F)cc2)C(=O)N(C)CC(=O)N[C@@H](CCc2cc(F)c(C(F)(F)F)c(F)c2)C(=O)N2C[C@H](OCC)C[C@H]2C(=O)NC2(CC(C)(C)C2)C(=O)N(C)[C@@H](CC2CCC2)C(=O)N(C)[C@H](C(=O)N(C)C)CC(=O)N1C [PP2763] |  | A (a compound having 10 or more and less than 20 is denoted as A) | A (a compound having 10 or more and less than 20 is denoted as A) | 71.9 | 0.86 |  |  |  | 
4 | CCO[C@@H]1C[C@H]2C(=O)NC3(CCCC3)C(=O)N(C)[C@@H](C3CCCC3)C(=O)N(C)[C@H](C(=O)N(C)C)CC(=O)N(C)[C@@H](CC3CC3)C(=O)N[C@@H]([C@@H](C)CC)C(=O)N(C)CC(=O)N(C)[C@H]3C[C@@H](C)[C@@H](C)CN(C3=O)[C@@H](Cc3ccc(C(F)(F)F)cc3)C(=O)N(C)CC(=O)N[C@@H](CCc3ccc(C(F)(F)F)c(Cl)c3)C(=O)N2C1 [PP1362] |  |  |  |  |  | 0.037 | A (a compound having 10 or more and less than 20 is denoted as A) | B (a compound having 3 or more and less than 10 is denoted as B) | 3.7
5 | CCC[C@H]1C(=O)N[C@@H]([C@@H](C)CC)C(=O)N(C2CC2)CC(=O)N(C)[C@H]2C/C=C\CCN(C2=O)[C@@H](Cc2ccc(C(F)(F)F)cc2)C(=O)N(C)CC(=O)N[C@@H](CCc2cc(F)c(C(F)(F)F)c(F)c2)C(=O)N2CC[C@H](OC)[C@H]2C(=O)N(C)C2(CCC2)C(=O)N(C)[C@@H](C2CCCC2)C(=O)N(C)[C@H](C(=O)N(C)C)CC(=O)N1C [PP3282] | 0.2 | A (a compound having 10 or more and less than 20 is denoted as A) | A (a compound having 10 or more and less than 20 is denoted as A) | 8.3 |  |  |  |  | 
6 | CCC[C@H]1C(=O)N[C@@H]([C@@H](C)CC)C(=O)N2CCC[C@H]2C(=O)N(C)[C@H]2C/C=C\CCN(C2=O)[C@@H](CC2CCC(F)(F)CC2)C(=O)N(C)CC(=O)N[C@@H](CCc2ccc(C(F)(F)F)c(OC)c2)C(=O)N2C[C@@H](C)C[C@H]2C(=O)N(C)C2(CCC2)C(=O)N(C)[C@@H](C2CCCC2)C(=O)N(C)[C@H](C(=O)N(C)C)CC(=O)N1C [PP2380] |  | A (a compound having 10 or more and less than 20 is denoted as A) | A (a compound having 10 or more and less than 20 is denoted as A) | 2.1 | 0.85 |  |  |  | 
7 | CCCO[C@@H]1C[C@H]2C(=O)NC3(CC(C)(C)C3)C(=O)N(C)[C@@H](C3CCCC3)C(=O)N(C)[C@H](C(=O)N(C)CC)CC(=O)N(C)[C@@H](COCC)C(=O)N[C@@H]([C@@H](C)CC)C(=O)N3CCC[C@H]3C(=O)N(C)[C@H]3C/C=C\CCN(C3=O)[C@@H](Cc3ccc(C)cc3)C(=O)N(C)CC(=O)N[C@@H](CCc3ccc(C(F)(F)F)c(Cl)c3)C(=O)N2C1 [PP3463] | 0.97 | A (a compound having 10 or more and less than 20 is denoted as A) | A (a compound having 10 or more and less than 20 is denoted as A) | 50.4 |  |  |  |  | 
8 | CCC[C@H]1C(=O)N[C@@H]([C@@H](C)CC)C(=O)N(C2CC2)CC(=O)N(C)[C@H]2C/C=C\CCN(C2=O)[C@@H](Cc2ccc(C)cc2)C(=O)N(C)CC(=O)N[C@@H](CCc2ccc(Cl)c(Cl)c2)C(=O)N2C[C@H](OCC)C[C@H]2C(=O)NC2(CC(C)(C)C2)C(=O)N(C)[C@@H](CC2CCC2)C(=O)N(C)[C@H](C(=O)N(C)C)CC(=O)N1C [PP2761] |  | A (a compound having 10 or more and less than 20 is denoted as A) | A (a compound having 10 or more and less than 20 is denoted as A) | 68.4 | 2.8 |  |  |  | 
9 | CCOC[C@H]1C(=O)N[C@@H]([C@@H](C)CC)C(=O)N(C)CC(=O)N(C)[C@H]2C/C=C\CCN(C2=O)[C@@H](Cc2ccc(C)cc2)C(=O)N(C)CC(=O)N[C@@H](CCc2cc(F)c(C(F)(F)F)c(F)c2)C(=O)N2C[C@H](OCC)C[C@H]2C(=O)NC2(CC(C)(C)C2)C(=O)N(C)[C@@H](C2CCCC2)C(=O)N(C)[C@H](C(=O)N(CC)CC)CC(=O)N1C [PP2408] |  | A (a compound having 10 or more and less than 20 is denoted as A) | A (a compound having 10 or more and less than 20 is denoted as A) | 21.3 | 0.23 |  |  |  | 
10 | C=C(C)C[C@H]1C(=O)N(C)[C@H](C(=O)N(C)C)CC(=O)N(C)[C@@H](CC(C)C)C(=O)N[C@@H]([C@@H](C)CC)C(=O)N(C)CC(=O)N(C)[C@H]2C/C=C\CCN(C2=O)[C@@H](Cc2ccc(C)cc2)C(=O)N(C)CC(=O)N[C@@H](CCc2ccc(C(F)(F)F)c(OC)c2)C(=O)N2C[C@H](OCC)C[C@H]2C(=O)N(C)C2(CCC2)C(=O)N1C [PP3345] | 0.86 | A (a compound having 10 or more and less than 20 is denoted as A) | A (a compound having 10 or more and less than 20 is denoted as A) | 58.3 |  |  |  |  | 
11 | CCO[C@@H]1C[C@H]2C(=O)NC3(CCC3)C(=O)N(C)[C@@H](C3CCCC3)C(=O)N(C)[C@H](C(=O)N3CCOCC3)CC(=O)N(C)[C@@H](CC(C)C)C(=O)N[C@@H]([C@@H](C)CC)C(=O)N3CC[C@H]3C(=O)N(C)[C@H]3CC[C@@H](C)CN(C3=O)[C@@H](Cc3ccc(C(F)(F)F)cc3)C(=O)N(C)CC(=O)N[C@@H](CCc3cc(F)c(C(F)(F)F)c(F)c3)C(=O)N2C1 [PP1373] |  |  |  |  |  | 0.35 | B (a compound having 3 or more and less than 10 is denoted as B) | B (a compound having 3 or more and less than 10 is denoted as B) | 12.2
12 | CCC(CC)[C@H]1C(=O)N(C)[C@H](C(=O)N(C)C)CC(=O)N(C)[C@@H](COC)C(=O)N[C@@H]([C@@H](C)CC)C(=O)N2CCC[C@H]2C(=O)N(C)[C@H]2C/C=C\CCN(C2=O)[C@@H](Cc2ccc(C(F)(F)F)cc2)C(=O)N(C)CC(=O)N[C@@H](CCc2ccc(Cl)c(Cl)c2)C(=O)N2C[C@H](OC3CCCC3)C[C@H]2C(=O)NC2(CC(C)(C)C2)C(=O)N1C [PP2651] |  | AA (a compound having 20 or more is denoted as AA) | A (a compound having 10 or more and less than 20 is denoted as A) | 147 | 1.9 |  |  |  | 
13 | CCO[C@@H]1C[C@H]2C(=O)OC3(CCC3)C(=O)N(C)[C@@H](C3CCCC3)C(=O)N(C)[C@H](C(=O)N(C)C)CC(=O)N(C)[C@@H]([C@H](C)OC)C(=O)N[C@@H]([C@@H](C)CC)C(=O)N3CCC[C@H]3C(=O)N(C)[C@H]3C/C=C\CCN(C3=O)[C@@H](Cc3ccc(C)cc3)C(=O)N(C)CC(=O)N[C@@H](CCc3ccc(C(F)(F)F)c(OC)c3)C(=O)N2C1 [PP3395] | 0.82 | A (a compound having 10 or more and less than 20 is denoted as A) | B (a compound having 3 or more and less than 10 is denoted as B) | 11 |  |  |  |  | 
14 | CCO[C@@H]1C[C@H]2C(=O)NC3(CC(C)(C)C3)C(=O)N(C)[C@@H](C3CCCC3)C(=O)N(C)[C@H](C(=O)N(C)CC)CC(=O)N(C)[C@@H]([C@H](C)OC)C(=O)N[C@@H]([C@@H](C)CC)C(=O)N(C3CC3)CC(=O)N(C)[C@H]3C/C=C\CCN(C3=O)[C@@H](Cc3ccc(C(F)(F)F)cc3)C(=O)N(C)CC(=O)N[C@@H](CCc3cc(F)c(C(F)(F)F)c(F)c3)C(=O)N2C1 [PP3220] | 0.52 | A (a compound having 10 or more and less than 20 is denoted as A) | A (a compound having 10 or more and less than 20 is denoted as A) | 25.7 |  |  |  |  | 
15 | CCO[C@@H]1C[C@H]2C(=O)NC3(CCCC3)C(=O)N(C)[C@@H](C3CCCC3)C(=O)N(C)[C@H](C(=O)N(C)C)CC(=O)N(C)[C@@H](CC)C(=O)N[C@@H]([C@@H](C)CC)C(=O)N(C)CC(=O)N(C)[C@H]3C[C@@H](C)[C@@H](C)CN(C3=O)[C@@H](Cc3ccc(C(F)(F)F)cc3)C(=O)N(C)CC(=O)N[C@@H](CCc3ccc(C(F)(F)F)c(Cl)c3)C(=O)N2C1 [PP1358] |  |  |  |  |  | 0.03 | A (a compound having 10 or more and less than 20 is denoted as A) | B (a compound having 3 or more and less than 10 is denoted as B) | 4.1
